Reference: patent US12325696B2, “Indazole derivative, preparation method therefor, and pharmaceutical application thereof” (JIANGSU HENGRUI MEDICINE CO., LTD., priority 2019, dated 2025)
pIC50: −log10 of the molar value.

How the values were obtained:
Assay type in all cases: cell-based
[1] = test system: MCF7 cell; assay: Inhibition of proliferation of MCF7 cell (CellTiter-Glo, 144 hours); settings: Homo sapiens; for pIC50: MCF7, CellTiter-Glo, read-out: IC50 of the inhibitory effect on the proliferation of MCF7 cell; for Emax: MCF7 cell proliferation, read-out: Maximum inhibition
Procedure: (§1) MCF7 cells (ATCC, HTB-22) were cultured in MEM (GE Healthcare, SH30024.01) complete medium containing 10% fetal bovine serum. On the first day of the experiment, MCF7 cells were seeded in a 96-well plate with the complete medium at a density of 3,000 cells/well (100 μl of cell suspension per well), and the plate was incubated in a cell incubator at 37° C. and 5% CO2 overnight. On the second day, the medium in each well was replaced with 135 μl of MEM incomplete medium containing 2% fetal bovine serum. 15 μl of test compound solution of different concentrations formulated with the incomplete medium was added to each well, wherein the final concentrations of the compound were nine concentration points obtained by a 4-fold gradient dilution starting from 100 nM. A blank control containing 0.5% DMSO was set. The plate was incubated in a cell incubator at 37° C. and 5% CO2 for 144 hours. On the eighth day, the 96-well plate was taken out, and 150 μl of CellTiter-Glo® Luminescent Cell Viability Assay (Promega, G7573) was added to each well. The plate was left to stand at room temperature for 10 minutes, and the luminescence signal values were measured using a multi-label microplate reader (PerkinElmer, VICTOR 3). The IC50 values of the inhibitory activity of the compounds were calculated based on the concentrations and luminescence signal values of the compounds using Graphpad Prism software.
A graph of the chemiluminescence signal values versus the logarithmic concentrations of the compound was made using Graghpad Prism to obtain the IC50 values of the compound.

[2] = test system: MCF7 ERαY537S; assay: Inhibition of proliferation of MCF7 cell expressing ERα Y537S mutant; settings: Homo sapiens, 144 hours; for Emax: read-out: Maximum inhibition
Text: (§2) The mutants ERα Y537S and ERα D538G of human estrogen receptor α (ERαs) protein were obtained by site-directed mutagenesis using the cDNA of wild-type ESR1 gene (Accession No. NM000125) as a template according to double-primer PCR. The primer sequences used for mutagenesis are as follows (the nucleotides underlined are the sites of mutagenesis):
(§3) The cDNA of mutant ESR1 was cloned into the target lentiviral vector pCDH-CMV-MCS-EF1-Puro (SBI, CD510B-1). The lentiviral plasmid with the mutant ESR1 gene sequence and the lentiviral packaging plasmids pVSV-G and pCMV-dR8.91 (SBI, LV500A-1) were transfected into HEK-293T cells (ATCC, CRL-3216) by Lipofectamine 3000 Transfection Reagent (ThermoFisher Scientific, Cat #L3000075). 48 hours after the transfection, the supernatant of the virus-containing DMEM high-glycemic medium (GE Healthcare, SH30243.01) containing 10% FBS was filtered, and ultracentrifuged to obtain the virus pellet. The virus pellet was resuspended in an appropriate amount of MEM medium (GE Healthcare, SH30024.01) containing 10% FBS, non-essential amino acids (SIGMA, M7145-100ML) and sodium pyruvate (SIGMA, S8636-100ML), and the resulting suspension was added to MCF7 cells (ATCC, HTB-22). Polybrene (SIGMA, H9268-5G) at a final concentration of 8 µg/ml was added, and the cells were incubated overnight. Two days after the transfection, […] puromycin (invitrogen, A11138-03) was added to the cell culture medium for resistance screening. After about two weeks, the MCF7 cell line capable of stably expressing ERαY537S and ERα D538G mutants was obtained.
as §1, with “MCF7 cells expressing ERα mutant were cultured” for “MCF7 cells (ATCC, HTB-22) were cultured”, “the experiment, the cells were” for “the experiment, MCF7 cells were”, “control containing 0.500 DMSO was” for “control containing 0.5% DMSO was”, “C. and […] for” for “C. and 5% CO2 for”, “and 150 of CellTiter-Glo®” for “and 150 μl of CellTiter-Glo®”

[3] = test system: MCF7 D538G; assay: Inhibition of proliferation of MCF7 cell expressing ERα D538G mutant; settings: Homo sapiens, 144 hours; for Emax: read-out: Maximum inhibition
Text: as §2, §3
as §1, with “MCF7 cells expressing ERα mutant were cultured” for “MCF7 cells (ATCC, HTB-22) were cultured”, “the experiment, the cells were” for “the experiment, MCF7 cells were”, “control containing 0.500 DMSO was” for “control containing 0.5% DMSO was”, “C. and […] for” for “C. and 5% CO2 for”, “and 150 of CellTiter-Glo®” for “and 150 μl of CellTiter-Glo®”

[4] = test system: estrogen receptor reporter gene; assay: Inhibition of estrogen receptor reporter gene activity (ERE-luc luciferase) in MCF7/ERE-luc cells; settings: Homo sapiens, 0.1 nM β-estradiol, 20 hours, read-out: IC50 of inhibitory activity on the activity of the estrogen receptor reporter gene
Procedure: MCF7 cells MCF7/ERE-luc (ATCC, HTB-22) expressing the luciferase reporter gene ERE-luc (synthesized by GENEWIZ, Inc.) controlled by the estrogen receptor response element were cultured in MEM (GE Healthcare, SH30024.01) medium containing 10% fetal bovine serum and 500 µg/ml G418. On the first day of the experiment, MCF7/ERE-luc cells were seeded in a 96-well plate with incomplete MEM medium containing 10% fetal bovine serum treated with activated charcoal (BioSun, BS-0004-500) at a density of 30,000 cells/well (100 μl of cell suspension per well), and the plate was incubated in a cell incubator at 37° C. and 5% CO2 overnight. On the second day, 10 μl of β-estradiol (SIGMA, E2758-250MG) solution formulated with the above incomplete medium or test compound solution of different concentrations formulated with the above incomplete medium was added to each well, wherein the final concentration of β-estradiol was 0.1 nM, and the final concentrations of the compound were nine concentration points obtained by a 10-fold gradient dilution starting from 10 μM, a blank control containing 0.5% DMSO was set, and the plate was incubated in a cell incubator at 37° C. and 5% CO2 for 20 hours. On the third day, the 96-well plate was taken out, and 100 μl of ONE-Glo™ Luciferase Assay system (Promega, E6110) was added to each well to determine the activity of luciferase. The plate was left to stand at room temperature for 3 minutes until the cells were fully lysed, and the luminescence signal values were measured using a multi-label microplate reader (PerkinElmer, VICTOR 3). The IC50 values of the inhibitory activity of the compounds were calculated using Graphpad Prism software based on the concentrations and luminescence signal values of the compounds.
The inhibitory effect of the compounds of the present disclosure on the activity of the estrogen receptor reporter gene was determined by the above test. A graph of the chemiluminescence signal values versus the logarithmic concentrations of the compound was made using Graghpad Prism.

| pIC50 [1] | pIC50 [2] | pIC50 [3] | pIC50 [4] | SMILES | Emax [1] [%] | Emax [2] [%] | Emax [3] [%] |
| --- | --- | --- | --- | --- | --- | --- | --- |
| 9.52 | 8.15 | 8.40 | 8.10 | CC#CC(=O)N1CCC(Oc2ccc(/C(=C(/CC(F)(F)F)c3ccccc3)c3ccc4[nH]nc(F)c4c3)cn2)CC1 [Example 10, (Z)-1-(4-((5-(4,4,4-Trifluoro-1-(3-fluoro-1H-indazol-5-yl)-2-phenylbut-1-en-1-yl)pyridin-2-yl)oxy)piperidin-1-yl)but-2-yn-1-one] | 104 | 86 | 104 |
| 8.70 | 7.92 | 7.92 | 7.42 | CN(C)C(=O)/C=C/CNC1(COc2ccc(/C(=C(/CC(F)(F)F)c3ccccc3)c3ccc4[nH]nc(F)c4c3)cn2)CCCC1 [Example 7, (E)-N,N-Dimethyl-4-((1-(((5-((Z)-4,4,4-trifluoro-1-(3-fluoro-1H-indazol-5-yl)-2-phenylbut-1-en-1-yl)pyridin-2-yl)oxy)methyl)cyclopentyl)amino)but-2-enamide] | 102 | 88 | 84 |
| 9.52 | 8.70 | 9.00 | 8.52 | C=CC(=O)N1CCC[C@@H](Oc2ccc(/C(=C(/CC(F)(F)F)c3ccccc3)c3ccc4[nH]nc(F)c4c3)cn2)C1 [Example 26, (R,Z)-1-(3-((5-(4,4,4-Trifluoro-1-(3-fluoro-1H-indazol-5-yl)-2-phenylbut-1-en-1-yl)pyridin-2-yl)oxy)piperidin-1-yl)prop-2-en-1-one] | 103 | 104 | 111 |
| 10.00 | 9.52 | 9.70 | 8.52 | CN(C)C(=O)/C=C/CN(C)C1(COc2ccc(/C(=C(/CC(F)(F)F)c3ccccc3)c3ccc4[nH]nc(F)c4c3)cn2)CC1 [Example 5, (E)-N,N-Dimethyl-4-(methyl(1-(((5-((Z)-4,4,4-trifluoro-1-(3-fluoro-1H-indazol-5-yl)-2-phenylbut-1-en-1-yl)pyridin-2-yl)oxy)methyl)cyclopropyl)amino)but-2-enamide] | 96 | 107 | 98 |
| 9.70 | 9.00 | 9.00 | 8.52 | CN(C)C(=O)/C=C/CN[C@@H]1CCN(c2ccc(/C(=C(/CC(F)(F)F)c3ccccc3)c3ccc4[nH]nc(F)c4c3)cn2)C1 [Example 34, (E)-N,N-Dimethyl-4-(((R)-1-(5-((Z)-4,4,4-trifluoro-1-(3-fluoro-1H-indazol-5-yl)-2-phenylbut-1-en-1-yl)pyridin-2-yl)pyrrolidin-3-yl)amino)but-2-enamide] | 103 | 105 | 101 |
| 9.30 | 8.70 | 9.00 | 8.52 | CNC(=O)/C=C/CN1CCC[C@@H](Oc2ccc(/C(=C(/CC(F)(F)F)c3ccccc3)c3ccc4[nH]nc(F)c4c3)cn2)C1 [Example 11, (E)-N-Methyl-4-((R)-3-((5-((Z)-4,4,4-trifluoro-1-(3-fluoro-1H-indazol-5-yl)-2-phenylbut-1-en-1-yl)pyridin-2-yl)oxy)piperidin-1-yl)but-2-enamide] | 110 | 107 | 100 |
| 9.52 | 8.70 | 9.00 | 8.52 | CN(C)C(=O)/C=C/CN1CCC(Nc2ccc(/C(=C(/CC(F)(F)F)c3ccccc3)c3ccc4[nH]nc(F)c4c3)cn2)CC1 [Example 33, (E)-N,N-Dimethyl-4-(4-((5-((Z)-4,4,4-trifluoro-1-(3-fluoro-1H-indazol-5-yl)-2-phenylbut-1-en-1-yl)pyridin-2-yl)amino)piperidin-1-yl)but-2-enamide] | 105 | 105 | 106 |
| 9.70 | – | – | 8.52 | CN(C)C(=O)/C=C/CN1CC[C@H](Oc2ccc(/C(=C(/CC(F)(F)F)c3ccccc3)c3ccc4[nH]nc(F)c4c3)cn2)C1 [Example 30, (E)-N,N-Dimethyl-4-((S)-3-((5-((Z)-4,4,4-trifluoro-1-(3-fluoro-1H-indazol-5-yl)-2-phenylbut-1-en-1-yl)pyridin-2-yl)oxy)pyrrolidin-1-yl)but-2-enamide] | 93 | – | – |
| 10.00 | – | – | 8.40 | C=CC(=O)N1CCC(Oc2ccc(/C(=C(/CC(F)(F)F)c3ccccc3)c3ccc4[nH]nc(F)c4c3)cn2)CC1 [Example 28, (Z)-1-(4-((5-(4,4,4-Trifluoro-1-(3-fluoro-1H-indazol-5-yl)-2-phenylbut-1-en-1-yl)pyridin-2-yl)oxy)piperidin-1-yl)prop-2-en-1-one] | 90 | – | – |
| 9.52 | – | – | 8.15 | CN(C)C(=O)/C=C/CN1CCC[C@H](Oc2ccc(/C(=C(/CC(F)(F)F)c3ccccc3)c3ccc4[nH]nc(F)c4c3)cn2)C1 [Example 27, (E)-N,N-Dimethyl-4-((S)-3-((5-((Z)-4,4,4-trifluoro-1-(3-fluoro-1H-indazol-5-yl)-2-phenylbut-1-en-1-yl)pyridin-2-yl)oxy)piperidin-1-yl)but-2-enamide] | 86 | – | – |
| 7.35 | – | – | – | CNC(=O)c1ccc(/C(CC(F)(F)F)=C(\c2ccc(O[C@@H]3CCCN(C/C=C/C(=O)N(C)C)C3)nc2)c2ccc3[nH]nc(F)c3c2)cc1 [Example 21, 4-((Z)-1-(6-(((R)-1-((E)-4-(Dimethylamino)-4-oxobut-2-en-1-yl)piperidin-3-yl)oxy)pyridin-3-yl)-4,4,4-trifluoro-1-(3-fluoro-1H-indazol-5-yl)but-1-en-2-yl)-N-methylbenzamide] | 90 | – | – |
